Data from PMC10967270, “Intrapulmonary and Systemic Pharmacokinetics of Colistin Following Nebulization of Low-Dose Colistimethate Sodium in Patients with Ventilator-Associated Pneumonia Caused by Carbapenem-Resistant Acinetobacter baumannii” (Antibiotics, 2024).
Positions of bridges follow the written chain, without caps; N, C: chain ends. Non-standard residues stand in square brackets, D forms with d. Residues, ends and D or L forms follow the SMILES beside them. *: point of attachment. X1 = CC[C@H](C)CCCCC(=O)*; Dab = NCC[C@H](N)C(=O)O

Columns and labels:
[1] = Colistin concentration in plasma after CMS nebulization; assay type: in vivo; conditions: human, inhaled or intranasal, 20 patients
Method: Patients were treated with CMS (Xellia Pharmaceuticals ApS, Copenhagen, Denmark) at a total of 3.75 MIU (equivalent to 300 mg of CMS or 112.5 mg of CBA) administered four times a day at 6 h intervals. CMS was dissolved in 5 mL of normal saline and administered over 30 min through a jet nebulizer (Sileo 54, Macjin Medical, Seoul, Republic of Korea) connected to the ventilator circuit. Bronchoalveolar lavage fluid (BALF) was obtained by instilling 20 mL of normal saline into the right middle lobe or left lingular segmental bronchus using a bronchoscope, followed by immediate aspiration and collection into a syringe. Samples were collected immediately before the nebulization treatment and at 1, 3, and 5 h after the start of the treatment. Blood samples were collected before the nebulization treatment and at 1, 2, 3, and 5 h thereafter. Both BALF and blood samples were centrifuged at 3000× g for 10 min within 1 h of collection and the supernatant was isolated. Samples were then stored in a refrigerator at a temperature below −70 °C.
A validated liquid chromatography–tandem mass spectrometry assay was used to determine colistin concentrations in BALF and plasma samples. The HPLC equipment consisted of an Agilent 1200 series modular system and an Atlantis C18 column (Company, Waters, Milford, MA, USA) (2.1 mm × 150 mm, 3.0 μm). Mobile phases A and B were water and acetonitrile, respectively. Both phases contained 0.1% formic acid. A gradient elution program was started at 10% B, increased to 35% for 1 min, maintained at this composition for 3.8 min, and returned to the initial composition for 5 min to re-equilibrate the column. Mass spectrometry (MS) was performed using a triple-quadruple mass spectrometer (SCIEX QTRAP5500, Applied Biosystems, Foster City, CA, USA) with an electrospray ionization (ESI) interface. The ESI source was set to positive ionization mode. The parent to product transition (m/z) was 578.483→101.071 for colistin A, 585.453→101.071 for colistin B, and 602.527→101.000 for polymyxin B. Data acquisition and processing were performed using the Analyst software (version 1.7.1; Applied Biosystems, Foster City, CA, USA). Stock solutions of colistin and IS were prepared in deionized water at concentrations of 10 mg/mL, and both were stored at −20 °C. Working solutions of colistin were prepared in deionized water (dilutions of 2, 5, 10, 50, 100, 500, and 1000 μg/mL). Calibration standards were prepared by spiking 247.5 μL of drug-free plasma with 2.5 μL of colistin working solution. Low (colistin A; 11.16 ng/mL, colistin B; 48.84 ng/mL), moderate (colistin A; 186 ng/mL, colistin B; 814 ng/mL), and high (colistin A; 1488 ng/mL, colistin B; 6512 ng/mL) concentrations of QC samples were prepared. Sample pretreatment involved a solid phase extraction. A 250 μL aliquot of plasma was pipetted into a 1.5 mL Eppendorf tube, to which 10 μL of IS (10 μg/mL, polymyxin B) and 740 μL of deionized water were added. This mixture was loaded into a cartridge that had been preconditioned twice with 1 mL of methanol and 1 mL of deionized water. After the plasma mixture was loaded, the cartridge was washed with 1 mL of deionized water. One milliliter of methanol including 0.1% formic acid was used for extraction. Extraction liquid was evaporated by vacuum concentrator (Speedvac, Thermo Fisher Scientific Inc., Waltham, MA, USA) at 45 °C for 2.5 h. Samples were reconstituted in 100 μL deionized water containing 0.1% formic acid. […]

[2] = cited from earlier work
Method: We investigated whether the fAUC values of individual patients were associated with clinical or microbiological outcomes (Table 3). Using individual estimates of CL derived from the final PK model, we calculated the steady-state fAUC for each patient when a total of 3.75 MIU (=300 mg CMS = 112.5 mg CBA) was administered at 6 h intervals four times a day, using the formula AUC = DOSE/CL. The unbound fraction of colistin was assumed to be 10% [25] in the ELF based on the study by Gkoufa et al. and 34% in the plasma based on the study by Mohamed et al.. Gkoufa et al. presented concentrat ...

CC[C@H](C)CCCCC(=O)N[C@@H](CCN)C(=O)N[C@H](C(=O)N[C@@H](CCN)C(=O)N[C@H]1CCNC(=O)[C@H]([C@@H](C)O)NC(=O)[C@H](CCN)NC(=O)[C@H](CCN)NC(=O)[C@H](CC(C)C)NC(=O)[C@@H](CC(C)C)NC(=O)[C@H](CCN)NC1=O)[C@@H](C)O [colistin] (X1-[Dab]T[Dab][Dab][Dab][dL]L[Dab][Dab]T; lactam 4-C)
level at 1 h ([1]; 1 h after start (time by position in Figure 1c), CMS 0.9375 MIU nebulized over 30 min, LC-MS/MS, read-out: Median colistin concentration in plasma): 19.2 ng/mL
level at 2 h ([1]; 2 h after start (time by position in Figure 1c), CMS 0.9375 MIU nebulized over 30 min, LC-MS/MS, read-out: Median colistin concentration in plasma): 29.8 ng/mL
level at 3 h ([1]; 3 h after start (time by position in Figure 1c), CMS 0.9375 MIU nebulized over 30 min, LC-MS/MS, read-out: Median colistin concentration in plasma): 37.7 ng/mL
level at 5 h ([1]; 5 h after start (time by position in Figure 1c), CMS 0.9375 MIU nebulized over 30 min, LC-MS/MS, read-out: Median colistin concentration in plasma): 32.6 ng/mL
Cmax ([1]; nebulized CMS 0.9375 MIU over 30 min, monitored over 5 h, read-out: Observed peak colistin concentration in plasma, median (IQR)): 43.5 ng/mL
Unbound fraction of colistin in the ELF ([2]; assumed, rounded from 0.099 used in simulations by Gkoufa et al.): 10%
Unbound fraction of colistin in plasma, median ([2]; equilibrium dialysis, Mohamed et al.): 34%
